Each block holds one compound with its values, some of them ahead of it.
Legend:
[1] = target: T1, Mitogen-activated protein kinase kinase kinase kinase 1 (Homo sapiens, UniProt Q92918); test: Inhibition of HPK1 (unknown origin) by TR-FRET assay
Target sequence in this assay (Q92918 whole entry): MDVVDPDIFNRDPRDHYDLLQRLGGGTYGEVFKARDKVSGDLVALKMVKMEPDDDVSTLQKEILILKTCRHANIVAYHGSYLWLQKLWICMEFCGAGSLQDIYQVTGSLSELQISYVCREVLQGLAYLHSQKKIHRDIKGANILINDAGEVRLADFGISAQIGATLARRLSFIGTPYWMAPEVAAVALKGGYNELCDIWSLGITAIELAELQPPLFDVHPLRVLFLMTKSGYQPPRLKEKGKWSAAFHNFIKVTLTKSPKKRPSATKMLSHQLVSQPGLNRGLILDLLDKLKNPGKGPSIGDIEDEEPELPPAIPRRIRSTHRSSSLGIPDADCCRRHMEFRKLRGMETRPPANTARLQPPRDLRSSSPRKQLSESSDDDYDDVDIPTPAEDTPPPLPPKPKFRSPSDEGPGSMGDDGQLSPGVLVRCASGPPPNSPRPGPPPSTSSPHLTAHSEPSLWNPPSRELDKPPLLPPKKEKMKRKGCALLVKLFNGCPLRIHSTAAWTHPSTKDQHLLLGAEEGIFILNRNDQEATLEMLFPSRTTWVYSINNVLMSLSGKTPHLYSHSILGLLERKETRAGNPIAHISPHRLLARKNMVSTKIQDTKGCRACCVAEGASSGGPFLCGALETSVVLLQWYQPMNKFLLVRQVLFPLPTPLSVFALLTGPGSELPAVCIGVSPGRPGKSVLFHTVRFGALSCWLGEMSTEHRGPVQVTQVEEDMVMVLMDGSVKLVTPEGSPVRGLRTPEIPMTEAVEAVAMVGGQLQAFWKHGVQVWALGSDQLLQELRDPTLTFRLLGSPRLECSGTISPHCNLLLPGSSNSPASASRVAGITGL

[2] = Cytotoxicity against HEK293 cells assessed as cell growth inhibition; format: toxicity, cell-based; details: human
[3] = target: T1, Mitogen-activated protein kinase kinase kinase kinase 1; test: Inhibition of HPK1 (unknown origin) assessed as inhibition constant by Lanthascreen binding assay
Target sequence in this assay (Q92918 whole entry): as above

[4] = target: T1, Mitogen-activated protein kinase kinase kinase kinase 1; test: Inhibition of HPK1 (unknown origin) in presence of ATP
Target sequence in this assay (Q92918 whole entry): as above

[5] = target: T1, Mitogen-activated protein kinase kinase kinase kinase 1; test: Inhibition of HPK1 (1 to 346 residues) (unknown origin) assessed as inhibition constant by Lanthascreen binding assay
Target sequence in this assay (Q92918 whole entry): as above

[6] = target: T1, Mitogen-activated protein kinase kinase kinase kinase 1; test: Inhibition of HPK1 (unknown origin) by ADP-Glo kinase assay
Target sequence in this assay (Q92918 whole entry): as above

[7] = target: T2, Receptor-type tyrosine-protein kinase FLT3 (Homo sapiens, UniProt P36888); test: Inhibition of FLT3 (unknown origin) by FRET assay
T2 sequence (P36888 whole entry): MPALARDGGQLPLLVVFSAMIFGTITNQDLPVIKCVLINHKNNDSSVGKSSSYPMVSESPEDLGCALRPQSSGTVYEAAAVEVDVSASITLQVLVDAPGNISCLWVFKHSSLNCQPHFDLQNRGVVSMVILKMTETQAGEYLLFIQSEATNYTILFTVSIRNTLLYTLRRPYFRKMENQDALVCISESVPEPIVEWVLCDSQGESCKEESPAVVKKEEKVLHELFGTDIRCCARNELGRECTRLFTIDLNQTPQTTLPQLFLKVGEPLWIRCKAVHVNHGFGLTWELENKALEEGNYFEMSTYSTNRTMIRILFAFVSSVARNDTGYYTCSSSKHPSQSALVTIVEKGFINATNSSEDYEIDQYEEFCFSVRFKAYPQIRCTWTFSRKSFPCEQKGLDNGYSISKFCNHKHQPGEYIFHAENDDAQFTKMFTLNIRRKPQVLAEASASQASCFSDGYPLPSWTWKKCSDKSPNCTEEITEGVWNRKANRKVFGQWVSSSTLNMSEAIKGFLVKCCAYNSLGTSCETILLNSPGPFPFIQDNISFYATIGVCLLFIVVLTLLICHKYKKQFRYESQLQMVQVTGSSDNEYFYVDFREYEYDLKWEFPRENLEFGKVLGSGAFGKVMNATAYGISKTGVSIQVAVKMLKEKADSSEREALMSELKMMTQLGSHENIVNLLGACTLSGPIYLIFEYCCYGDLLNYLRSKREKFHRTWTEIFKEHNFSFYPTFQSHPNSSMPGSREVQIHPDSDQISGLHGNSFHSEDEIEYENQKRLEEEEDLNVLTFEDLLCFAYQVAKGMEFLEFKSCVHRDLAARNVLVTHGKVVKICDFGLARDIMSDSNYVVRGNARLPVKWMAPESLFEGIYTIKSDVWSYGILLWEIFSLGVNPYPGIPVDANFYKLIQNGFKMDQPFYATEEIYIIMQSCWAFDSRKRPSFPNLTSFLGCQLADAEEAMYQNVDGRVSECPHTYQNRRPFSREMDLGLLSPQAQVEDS

[8] = target: Tyrosine-protein kinase Lck (Homo sapiens, UniProt P06239); test: Inhibition of LCK (unknown origin)
Sequence of Tyrosine-protein kinase Lck (P06239 whole entry): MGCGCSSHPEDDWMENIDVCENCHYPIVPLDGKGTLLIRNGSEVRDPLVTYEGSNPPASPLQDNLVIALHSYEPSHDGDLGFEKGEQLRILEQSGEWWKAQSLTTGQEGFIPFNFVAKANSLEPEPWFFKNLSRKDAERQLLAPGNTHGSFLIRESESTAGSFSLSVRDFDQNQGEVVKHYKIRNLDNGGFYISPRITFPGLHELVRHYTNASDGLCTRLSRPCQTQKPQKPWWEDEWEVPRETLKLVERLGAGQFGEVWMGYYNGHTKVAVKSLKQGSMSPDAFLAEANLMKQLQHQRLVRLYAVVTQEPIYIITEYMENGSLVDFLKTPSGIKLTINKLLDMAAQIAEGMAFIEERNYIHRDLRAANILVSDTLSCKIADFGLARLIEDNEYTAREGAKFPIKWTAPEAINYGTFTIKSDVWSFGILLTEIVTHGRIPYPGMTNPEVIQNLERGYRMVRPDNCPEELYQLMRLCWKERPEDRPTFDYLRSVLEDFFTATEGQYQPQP

[9] = target: T1, Mitogen-activated protein kinase kinase kinase kinase 1; test: Inhibition of HPK1 (unknown origin) by ELISA
Target sequence in this assay (Q92918 whole entry): as the sequence (Q92918 whole entry) above

[10] = target: T1, Mitogen-activated protein kinase kinase kinase kinase 1; test: Inhibition of HPK1 (unknown origin) in presence of ATP by ADP-Glo kinase assay
[11] = target: T1, Mitogen-activated protein kinase kinase kinase kinase 1; test: Inhibition of HPK1 (unknown origin) assessed as inhibition of SLP76 phosphorylation by HTRF assay
[12] = target: T1, Mitogen-activated protein kinase kinase kinase kinase 1; test: Inhibition of HPK1 (unknown origin) assessed as inhibition of SLP76 phosphorylation at 0.3 to 1 uM relative to control; details: dose 0.3-1 µM
Target sequence in this assay (Q92918 whole entry, looked up): as the sequence (Q92918 whole entry) above

[13] = target: T1, Mitogen-activated protein kinase kinase kinase kinase 1; test: Inhibition of HPK1 (unknown origin) by FRET assay
[14] = target: T1, Mitogen-activated protein kinase kinase kinase kinase 1; test: Inhibition of HPK1 (unknown origin) in presence of ATP by TR-FRET assay
[15] = target: T1, Mitogen-activated protein kinase kinase kinase kinase 1; test: Inhibition of HPK1(unknown origin) assessed as inhibition of SLP76 phosphorylation by cell based assay
[16] = target: T1, Mitogen-activated protein kinase kinase kinase kinase 1; test: Binding affinity to HPK1 (unknown origin) assessed as dissociation constant by SPR analysis
[17] = target: T1, Mitogen-activated protein kinase kinase kinase kinase 1; test: Inhibition of N-terminal DYKDDDDK-tagged human HPK1 (1 to 346 residues) expressed in baculovirus expression system using SLP76 as substrate incubated for 1 hr in presence of ATP by TR-FRET assay
[18] = target: T1, Mitogen-activated protein kinase kinase kinase kinase 1; test: Inhibition of HPK1 in human PBMC assessed as inhibition of SLP76 phosphorylation incubated for 1 hr by ELISA; format: cell-based
Interleukin-2 = Interleukin-2 (Homo sapiens, UniProt P60568); test: Inhibition of IL-2 (unknown origin)
Sequence of Interleukin-2 (P60568 whole entry): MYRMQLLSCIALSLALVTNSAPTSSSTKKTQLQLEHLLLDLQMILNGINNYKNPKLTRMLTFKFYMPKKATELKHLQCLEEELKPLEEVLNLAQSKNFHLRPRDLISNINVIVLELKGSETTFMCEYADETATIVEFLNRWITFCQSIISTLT

[19] = target: T3, Protein cereblon/Mitogen-activated protein kinase kinase kinase kinase 1 (Homo sapiens) (UniProt Q92918+Q96SW2); test: PROTAC activity at CRBN/HPK1 (unknown origin) assessed as degradation of HPK1 at 10 nM incubated for 12 hrs by cell based assay relative to control
T3 sequence (Q92918 whole entry, looked up): as the sequence (Q92918 whole entry) above
T3 sequence (Q96SW2 whole entry, looked up): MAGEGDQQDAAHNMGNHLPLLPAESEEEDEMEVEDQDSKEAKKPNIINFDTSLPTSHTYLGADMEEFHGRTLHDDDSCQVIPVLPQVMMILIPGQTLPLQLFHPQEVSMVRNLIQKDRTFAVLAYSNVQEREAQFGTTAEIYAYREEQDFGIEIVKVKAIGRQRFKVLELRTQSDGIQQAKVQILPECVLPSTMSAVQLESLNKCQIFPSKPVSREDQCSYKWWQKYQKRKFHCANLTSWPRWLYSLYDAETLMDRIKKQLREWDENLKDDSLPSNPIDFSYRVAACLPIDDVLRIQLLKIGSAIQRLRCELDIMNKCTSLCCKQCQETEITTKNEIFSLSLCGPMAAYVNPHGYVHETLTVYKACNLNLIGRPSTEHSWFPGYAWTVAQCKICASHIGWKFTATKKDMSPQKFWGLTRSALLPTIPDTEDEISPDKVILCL

[20] = target: T3, Protein cereblon/Mitogen-activated protein kinase kinase kinase kinase 1 (Homo sapiens); test: PROTAC activity at CRBN/HPK1 (unknown origin) assessed as degradation of HPK1 at 100 nM incubated for 12 hrs by cell based assay relative to control
[21] = target: T3, Protein cereblon/Mitogen-activated protein kinase kinase kinase kinase 1 (Homo sapiens); test: PROTAC activity at CRBN/HPK1 (unknown origin) assessed as maximum inhibition of SLP76 phosphorylation by cell based assay relative to control
[22] = target: T3, Protein cereblon/Mitogen-activated protein kinase kinase kinase kinase 1 (Homo sapiens); test: PROTAC activity at CRBN/HPK1 (unknown origin) assessed as maximum degradation of HPK1 by cell based assay relative to control
[23] = target: T1, Mitogen-activated protein kinase kinase kinase kinase 1; test: Inhibition of full-length HPK1 (unknown origin) assessed as inhibition constant in presence of ATP by HTRF assay

SMILES: Cc1c(CC#N)ccnc1-c1cc(N)cc(-c2cnc3c(c2Cl)[C@]2(CC[C@](C)(C#N)C2)CN3)c1
- Ki [3]: 0.9 nM

SMILES: Cc1cc(-c2cnc3[nH]cc(-c4ccc(C(O)C5CCN(C)C5)cc4)c3c2)ccc1N1CCN(C)CC1 (configuration not stated)
- IC50 [1]: 4.5 nM

SMILES: COc1cccc(F)c1-c1cc2c(NCc3ccc(N4CCN(C)CC4)cc3)n[nH]c2cn1
- Ki [5]: 500 nM

SMILES: COc1cc2c(cc1Nc1ncc(Cl)c(N3CC(CO)c4ccccc43)n1)CN(C)CC2 (configuration not stated)
- IC50 [6]: < 100 nM

SMILES: COc1cccc(F)c1-c1ccc2[nH]nc(-c3ccc(N4CCN(C)CC4)cc3)c2n1
- Ki [5]: ≤ 100 nM

SMILES: COc1ccc(-c2c[nH]c3ncc(C#N)c(Oc4c(F)cc(NC5=NCC(C)(CO)CO5)cc4F)c23)c(F)c1 (configuration not stated)
- IC50 [10]: ≤ 50 nM

SMILES: COc1ccc(-c2c[nH]c3ncnc(Oc4c(F)cc(NC5=NCC(C)(CO)CO5)cc4F)c23)c(F)c1 (configuration not stated)
- IC50 [10]: ≤ 50 nM

SMILES: Cc1c(CC#N)ccnc1-c1cccc(-c2cnc3c(c2Cl)C2(CC[C@@](C)(C(N)=O)C2)CN3)c1F (some centres not stated)
- Ki [3]: 0.39 nM

SMILES: COc1cc2c(cc1Nc1ncc(C(F)(F)F)c(Nc3ccccc3P(C)(C)=O)n1)CN(C)CC2
- IC50 [4]: 5 nM

SMILES: C/C(Nc1ccc(N2CCOCC2)cn1)=C1/C(=O)Nc2cnc(-c3cnccc3C)cc21
- IC50 [13]: < 50 nM

SMILES: COc1cccc(F)c1-c1ncc2[nH]nc(-c3ccc(N4CCN(C)CC4)cc3)c2n1
- Ki [5]: ≤ 100 nM

SMILES: COc1cccc(F)c1-n1cc2c(-c3ccc(N4CCN(C)CC4)cc3)n[nH]c2cc1=O
- Ki [5]: ≤ 100 nM

SMILES: Cn1cc(Nc2ncc(C3=CCC[C@@H](NC(=O)c4ccccc4)C3)nc2C(N)=O)cn1
- IC50 [14]: 4 nM
- EC50 [15]: 149 nM
- Kd [16]: 2.2 nM

SMILES: C[C@H]1CC(=O)c2ccc(Nc3cc4c([C@](C)(N)C5CC5)cnc(OC5CC5)c4cn3)cc2C12CC2
- IC50 [4]: 0.05 nM
- EC50 (Interleukin-2): 9.4 nM

SMILES: CC(C)(O)C#Cc1cccc(COc2cc(-c3cnc(C4CCN(C(=O)CCOCCOCCOCCOCCOc5cccc6c5C(=O)N(C5CCC(=O)NC5=O)C6=O)CC4)s3)cnc2N)c1 (configuration not stated)
- Activity [19]: 72%
- Activity [20]: 68%

SMILES: Cc1cc(-c2cnc(N)c(OCc3ccnc(C#Cc4cccc(F)c4)c3)n2)cc2c1CCN(C)C2
- IC50 [14]: 2.8 nM

SMILES: CC(C)(O)C#Cc1cccc(COc2cc(-c3cnc(C4CCN(C(=O)CCCCCCCCCOc5cccc6c5C(=O)N(C5CCC(=O)NC5=O)C6=O)CC4)s3)cnc2N)c1 (configuration not stated)
- Emax [21]: 81%
- Activity [19]: 15%
- Emax [22]: 62%
- Activity [20]: 75%

Now from value to compound, other results behind:

- IC50 [1]: 4.8 nM
SMILES: Cc1cc(-c2cnc3[nH]cc(-c4ccc(C(=O)N5CC(N(C)C)C5)cc4)c3c2)cc(C)c1N1CCN(C2CCN(C)CC2)CC1

- IC50 [1]: 11 nM
SMILES: Cc1cc(-c2cnc3[nH]cc(-c4ccc(C(=O)N(C)C[C@H](C)O)cc4)c3n2)cc2c1CCN(CCN1CCOCC1)C2
- IC50 [2]: 1420 nM

- Ki [3]: 1300 nM
SMILES: Cc1cc2cc(N)c(C(=O)N(C)C)nc2[nH]1

- IC50 [4]: 100 nM
SMILES: COc1cc2c(cc1Nc1ncc(Cl)c(Nc3ccccc3P(C)(C)=O)n1)CN(C)CCC2

- Ki [5]: ≤ 100 nM
SMILES: COc1cccc(F)c1-c1cc2c(C(=O)Nc3ccc(N4CCN(C)CC4)cc3)n[nH]c2cn1

- IC50 [7]: ≤ 500 nM
- IC50 [8]: 50 nM
- IC50 [9]: ≤ 50 nM
SMILES: CN1CCN(c2ccc3[nH]c(-c4c(N)c5ccsc5[nH]c4=O)nc3c2)CC1

- IC50 [4]: ≤ 5 nM
SMILES: COc1cc2c(cc1Nc1ncc(Cl)c(Nc3ccccc3S(=O)(=O)C(C)C)n1)CN(C)CC2

- IC50 [11]: 730 nM
SMILES: CNCc1nc(C2(C)CC2)cc2c1CN(c1cccc(N3C(=O)OC[C@@H]3C)n1)C2=O

- inhibition [12]: > 75%
SMILES: CN1CCN(c2ccc3nc(-c4c(N)c5ccsc5[nH]c4=O)[nH]c3c2)CC1

- IC50 [4]: ≤ 5 nM
SMILES: COc1cc2c(cc1Nc1ncc(Br)c(Nc3ccccc3P(C)(C)=O)n1)CN(C)CC2

- IC50 [4]: 10 nM
SMILES: COc1cc2c(cc1Nc1ncc(Cl)c(Nc3ccccc3P(C)(C)=O)n1)CN(C)C2

- IC50 [1]: 107 nM
SMILES: CN(C)C(=O)c1ccc(-c2c[nH]c3ncc(-c4ccc5c(c4)CNCC5)cc23)cc1

- IC50 [1]: 7.3 nM
SMILES: CN(C)C(=O)c1ccc(-c2c[nH]c3ncc(-c4ccc5c(c4)CN([C@H]4CC[C@](C)(O)CC4)CC5)cc23)cc1

- IC50 [7]: 50 nM
- inhibition [12]: > 75%
- IC50 [8]: 50 nM
- IC50 [9]: 50 nM
SMILES: CN1CCN(c2ccc3nc(-c4c(N)c5sccc5[nH]c4=O)[nH]c3c2)CC1

- Ki [5]: ≤ 100 nM
SMILES: Cc1cc(CNCCO)cc(F)c1-c1cc2c(-c3cnn(C)c3)n[nH]c2cn1

- Ki [3]: 0.9 nM
SMILES: CCc1c(Cl)[nH]c2nc(C(=O)N(C)C)c(N)cc12

- IC50 [4]: 5 nM
SMILES: CNC(=O)c1ccccc1Nc1nc(Nc2cc3c(cc2OC)CCN(C)C3)ncc1Cl

- IC50 [11]: 22 nM
SMILES: CC(C)n1cnnc1-c1cccc(N2Cc3c(cc(N4CCC[C@H]4C)nc3CN)C2=O)n1

- IC50 [6]: 1.9 nM
SMILES: C[C@H]1COC(=O)N1c1cc(N)c2nnc(NC(=O)[C@@H]3C[C@H]3c3cnn(C)c3)cc2c1

- IC50 [4]: < 5 nM
- IC50 [17]: 0.334 nM
- IC50 [18]: 100 nM
SMILES: COc1cc2c(cc1Nc1ncc(Cl)c(Nc3ccccc3P(C)(C)=O)n1)CN(C)CC2

- Ki [3]: 15 nM
SMILES: CCc1c(C)[nH]c2nc(C(=O)N(C)C)c(N)cc12

- IC50 [1]: 8.2 nM
SMILES: COCCN(C)C(=O)c1ccc(-c2c[nH]c3ncc(-c4ccc(N5CCN(C)CC5)cc4)nc23)cc1

- IC50 [6]: < 0.01 nM
SMILES: Cc1ccncc1-c1cc2cc(NC(=O)C=C3CC(C#N)C3)ncc2c(N)n1 (configuration not stated)

- IC50 [13]: < 50 nM
SMILES: CCN(CC)CCNC(=O)c1c[nH]c(/C=C2\C(=O)Nc3ccc(-c4c(F)cccc4OC)cc32)c1

- Ki [23]: 0.05 nM
SMILES: Cc1c(N)cncc1-c1cc2cc(Nc3cc4n(n3)CC(=O)N(C(C)C)CC4)ncc2cc1F

From ChEMBL document CHEMBL5137050, “Hematopoietic Progenitor Kinase 1 in Tumor Immunology: A Medicinal Chemistry Perspective” (J Med Chem, 2022)
